Measurements taken from patent US11951167B2, “Targeted liposomes” (GEORGETOWN UNIVERSITY, priority 2012, dated 2024).

Tests used:
[1] = tested on: U87MG-Luc xenograft brain tumors; assay: Intracranial tumor growth (BLI, MRI), scL-p53 plus TMZ; format: in vivo, nude mice; settings: TMZ 5.0 mg/kg, scL-p53 30 ug DNA/mouse, i.v. 2x/week, 10 injections
Description: An experiment was performed to examine tumor growth inhibition induced by the sensitization of IC brain tumors to TMZ by systemic administration of scL-p53 prepared as described in U.S. Pat. No. 7,780,882. U87MG-Luc xenograft brain tumors were induced in nude mice by intracranially inoculating U87MG-luc cells. This cell line, obtained from Caliper Life Sciences, has been modified to stably express the Luciferase gene. 10 days post-inoculation, tumor-bearing animals were i.v. tail vein injected with TMZ alone (5.0 mg/kg/injection), scL-p53 alone (30 ug DNA/mouse/injection) or TMZ in combination with scL-p53. As a control, one group received PBS (vehicle). All i.v. injections were administered 2×/week to a total of 10 injections. To assess tumor response, bioluminescence imaging (BLI) was performed using IVIS® Imaging System's Xenogen. FIG. 24 is a comparison of in vivo anti-tumor efficacy of the various groups. Bioluminescence signals which correlate to tumor size are shown in a color map. Red color (at the top of the scale bar): the stronger signal, Violet color (at the bottom of the scale bar): the weaker signal. […] The horizontal bar indicates the duration of treatment (Last treatment=Day 24).
To confirm the bioluminescence findings, the mice were also imaged by MRI, without contrast agent, before and after the mice received 3 weeks of treatment. […]

U251 cells = assay: XTT cell viability, liposome TMZ vs free TMZ; format: cell-based, human; settings: at 16-46.3 μM TMZ
Description: Studies were carried out to compare the efficacy of standard free (unencapsulated) TMZ; and unliganded TMZ-containing liposomes (Lip-TMZ) The Lip-TMZ was prepared as described above in Example 1 using a liposome concentration of 2 mM. The zeta potentials of the Lip-TMZ molecules ranged from 35.6-40.1 mV. The TMZ concentration used was varied from 1 to about 250 uM. The ratios of Liposome to TMZ was 0.5:1, 1:1 or 2:1 (molar ratio).
Human brain tumor derived U251 cells were plated in triplicate at 2×10^3 per well in a 96-well plate. Following overnight incubation, the medium was replaced with serum-free medium, overlaid with 100 μL of indicated concentrations of either Lip-TMZ, or free TMZ, incubated for 5 h, and then supplemented with fetal bovine serum. After incubation for an additional 91 h, cell viability was determined by the XTT assay as described previously (Rait A, Pirollo K F, Rait V, et al. Inhibitory effects of the combination of HER-2 antisense oligonucleotide and chemotherapeutic agents used for the treatment of human breast cancer. Cancer Gene Ther 2001; 8:728-39.). Formazan absorbance, which correlates to cell viability, was measured at 450 nm using a microplate reader (Bio-Rad, Hercules, Calif.).

U87 cells = assay: XTT cell viability, Lip-TMZ vs free TMZ; format: cell-based, human

## Cn1nnc2c(C(N)=O)ncn2c1=O [TMZ, temozolomide]
[1]
  IC tumor growth during treatment (BLI): some minimal effect
U251 cells
  cell killing effect: virtually no cell killing effect
U87 cells
  cell killing effect: virtually no cell killing effect
